According to publication PMC7930471, “Targeting HIF2α-ARNT hetero-dimerisation as a novel therapeutic strategy for pulmonary arterial hypertension” (The European Respiratory Journal, 2021):

How the values were obtained:
rat HIF2α = molecular target: T1, rat HIF2α (Rattus norvegicus, UniProt Q9JHS1); experiment: isothermal titration calorimetry (iTC200), purified PAS-B domain titrated into PT2567; format: binding
T1 construct: gene Epas1; PAS-B domain (rat HIF2α-B, made from the human HIF2α-B expression vector by mutating T262L, I265V and I326V)
T1 sequence (Q9JHS1 240-350 limits assumed): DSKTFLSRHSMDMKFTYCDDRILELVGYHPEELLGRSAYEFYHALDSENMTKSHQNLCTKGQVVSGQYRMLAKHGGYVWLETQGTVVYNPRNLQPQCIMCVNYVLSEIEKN

HIF2α = molecular target: T2, HIF2α (Homo sapiens, UniProt Q99814); experiment: as above; format: binding
T2 construct: gene EPAS1; PAS-B domain (human HIF2α-B)
T2 sequence (Q99814 240-350 limits assumed): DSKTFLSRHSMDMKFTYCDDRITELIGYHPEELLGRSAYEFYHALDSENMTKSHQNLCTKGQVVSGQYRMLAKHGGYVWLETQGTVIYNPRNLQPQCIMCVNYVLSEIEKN

Kd (rat HIF2α): 29 nM
Kd (HIF2α): 30 nM
Substance: PT2567
